A short description of the series: Stability on storage at 4° C. Conditions: stored at 4° C. (21 days for the comparison).

Take `C=C(C)[C@@H]1CCC(C)=C[C@H]1c1c(O)cc(CCCCC)c(C(=O)OC)c1O` [HU-580, Cannabidiolic Acid Methyl Ester]: the Stability when stored entry is reported as “more stable than CBDA”.

These data come from US11440870B2, “Cannabidiolic acid esters compositions and uses thereof” (Yissum Research Development Company of the Hebrew …, priority 2017, dated 2022).
